Experiment [1] relates to isolated PBMCs (non-activated). Description: Activating effect on isolated non-activated PBMCs (CellTrace CFSE proliferation, flow cytometry). Particulars: for Median Fluorescence Day 7 Average / Median Fluorescence Day 2 Average: CellTrace CFSE; for Median Fluorescence Day 2 Average: no activation stimulus. It is filed as cell-based, human. An excerpt:
(§1) Upon recognition of a foreign substance (foreign peptide presented on MHC) by the T cell receptor (TCR) and stimulation of the co-receptor CD28 the T cells start to proliferate. Thus, proliferation is a clear indication of T cell activation. Another classic activation marker for T cells is CD25, the high affinity receptor for the interleukin IL-2. This protein is not expressed by resting T cells and transcription is induced by TCR signaling. Thus, the presence of CD25 on the surface of T cells is a clear indicator of T cell activation. On the contrary, T cell exhaustion correlates with the signaling-induced expression of PD-1 on the surface of the T cells. To test the impact of substances on T cell activation, proliferation as well as CD25 and PD-1 upregulation, are used as readouts. Primary human Peripheral blood mononuclear cells (PBMCs) isolated from the blood of healthy donors (including primary T-cells) were used. PBMC cells represent a heterogenic population with 45-80% T cells, 5-20% B cells, 10-25% monocytes and 5-20% NK cells.
(§2) CellTrace™ stock solution was prepared according to the manual; addition of 15 μL DMSO to the CellTrace™ reagent and mixed well. Cell suspension was adjusted to 10^6 cells/mL in RPMI without FBS before addition of 1 μL CellTrace™ stock solution to each mL of cell suspension. After 20 minutes incubation (protected from light) of the cells at room temperature, five times the volume of culture medium was added and then again incubated for 5 min at room temperature. Afterwards the cells were centrifuged (300×g for 5 min) and the pellet resuspended in fresh culture medium. As last step the cells were incubated at 37° C. with 5% CO2 for 1-2 hours before the set-up of the experiment.
(§3) Following CFSE labelling and recovering at 37° C. with 5% CO2, cells were mixed with the extract as follows: 20 μL of extract were placed in a 96-well u-bottom culture plate as triplicates, then 180 μL cell suspension was added on top and mixed. Final concentration of the cells was 5*10^4 cells/well (=2.5*10^5 cells/mL).
(§4) Sample format: 96 well with 200 μL/well and 10,000 events measured per sample. FACS (fluorescence activated cell sorting) gating was performed via SSC (sideward scatter) versus FSC (forward scatter) density blot. A gate has been applied to identify viable cells. Percentage of viable cells was determined for all samples of a 96-well plate.
(§5) CellTrace™ CFSE median fluorescence (488 nm excitation and a 530/30 nm bandpass emission filter): From viable cell population single cells were determined and viable, single cells within the gate defined in a histogram to evaluate the level of fluorescence intensity of cells labelled with CellTrace™ CFSE. Cell proliferation was followed for 7 days. With increasing level of proliferation median fluorescence decreases, shown as shift of peak from right to left within the flow cytometer; non-labeled cells shown on the far-left side. Median fluorescence was determined as read-out. Earliest observable influence on proliferation and activation was expected after 3 days of incubation with the test compounds.
All cells (40*10^6) of one vial of frozen PBMC's (non-activated) were used for CFSE staining and cultured with extracts as follows: Day 0-3 in RPMI 1640 with 10% FBS, 1% HEPS (10 mM); day 3-7 in RPMI 1640 with 10% FBS, 1% HEPS (10 mM) and 100 U/mL IL-2.
(§6) Water, DMSO or DMF were used as negative control; UCHT1 (anti-CD3) antibody as positive control. The samples plate set-up was used as follows:
(§7) Half medium change with fresh extracts of final concentration was done every day.
To evaluate, if the chosen test compounds could have an activating effect on isolated PBMCs (Peripheral Blood Mononuclear Cells) and induce them to proliferate, PBMCs were incubated together with the test compounds in different concentrations. […]
(In general: A flow cytometer gives signals particle by particle.)

Experiment [2] concerns activated PBMCs. Description: Influence on proliferation of activated PBMCs (anti-CD3/anti-CD28, IL-2; CellTrace CFSE). Particulars: for Median Fluorescence Day 2 Average / Median Fluorescence Day 3 Average: CellTrace CFSE, activated PBMCs, 100 U/ml IL-2; for proliferation of activated PBMCs on day 3 (in words): versus water, maltodextrin or solvent control. It is filed as cell-based, human.
Description: as §1, §2, §3, §4, §5
PBMCs isolated from blood were activated for 2 days on an activating surface with anti-CD3 (UCHT1) and anti-CD28. Activated PBMCs were then induced to proliferate by adding 1000 U/ml IL-2. Therefore, the cells were transferred to a new dish without activating antibodies and 2 days later the activated cells were used to set up the experiment. 40*10^6 cells were used for CFSE staining and cultured with extracts in RPMI 1640 with 10% FBS, 1% HEPS (10 mM), 0.1% β-mecaptoethanol (50 μM), 0.5% Pen/Strep and 100 U/ml IL-2.
as §6, §7
In the next experiment the effect of the test compounds on the proliferation of activated PBMCs was evaluated. […]

For experiment [3], the system named is Jurkat cells (T cell leukemia). Description: Cell viability (Cell Titer Glo, ATP luminescence). It is filed as cell-based. Particulars: increasing concentrations; FIG. 8A, FIG. 9. The protocol:
Similar cell viability assays were performed with additional cell lines (HeLa, Jurkat, Mt4 and THP-1) and using the Cell Titer Glo Assay. In order to further evaluate the effect of Healthberry® 865 on T cell populations and specifically the CD4+ populations, additional cell viability analysis was performed. On the basis that Healthberry® 865 has an influence on the CD4+ cell populations and additionally on the activation status of T cells, specifically T cell leukemia/lymphoma cell lines as Jurkat (T cell leukemia) and Mt4 (HTLV-I positive; human T-cell lymphotropic virus type I retrovirus causes adult T-cell leukemia-lymphoma) cells were chosen as in vitro models. Furthermore, control cell lines were chosen, which are not CD4^+ such as HeLa cells (epithelial cervix carcinoma) or which represent another type of leukemia such as THP-1 (acute monocytic leukemia). […] Cell viability tests were performed with the T cell leukemia cell lines Jurkat (FIG. 8A) and Mt4 (FIG. 8B) as well as with control cell lines such as the CD4 negative cervix carcinoma cell line HeLa (FIG. 8C) and the monocytic leukemia cell line THP 1 (FIG. 8D). Cell viability was evaluated based on ATP amount and via luminescence measurement. Samples were tested in triplicates.
A general note: Cellular ATP, detected with luciferase, serves as a proxy for viable cell number.

The test system of experiment [4] is CD8+ T cells in activated PBMCs. Briefly: Analysis of T cell populations via flow cytometry, CD8+. It is filed as cell-based, human. Particulars: FIG. 6. The protocol:
(§8) Sample preparation and plate set-up was used as described before in the T cell activation assay. Primary PBMCs were seeded on activating surface (anti-CD3, anti-CD28) with medium containing 1000 U/ml IL-2 for 2 days. The activated PBMCs were then cultured with the prepared sample concentrations in medium containing 100 U/ml IL-2 every day from day 3 on after isolation. Half medium change with fresh samples and flow cytometry measurement was performed every day. All cells for flow cytometry were labelled with an antibody mixture containing Annexin V_Alexa594, anti-CD4_APC and anti-CD8_PE for CD-marker as well as live-dead staining.
(§9) PBMS were activated by using an activating surface and the addition of Interleukin-2 to the cell culture media. The activated PBMCs, which contain T-cells as the most prominent cell type, were treated with the berry extracts or the anthocyanins from day 3 on after isolation. To evaluate the different T cell population flow cytometry analysis were performed with anti-CD4 and anti-CD8 antibodies in combination with Annexin V staining as live-dead-staining.

Experiment [5] concerns CD4+ T cells in activated PBMCs. Description: Analysis of T cell populations via flow cytometry, CD4+. It is filed as cell-based, human. Particulars: FIG. 7. The protocol: as §8, §9

Regarding `C[C@@H]1O[C@@H](OC[C@H]2O[C@@H](Oc3cc4c(O)cc(O)cc4[o+]c3-c3ccc(O)c(O)c3)[C@H](O)[C@@H](O)[C@@H]2O)[C@H](O)[C@H](O)[C@H]1O` [C3R, cyanidin 3-rutinoside], the “Median Fluorescence Day 7 Average” value in experiment [1] (15 μg/mL, IL-2 from day 3) turned out to be 21030; in experiment [1] (30 μg/mL, IL-2 from day 3), 21539; in experiment [1] (75 μg/mL, IL-2 from day 3), 22855. The “Median Fluorescence Day 2 Average” value amounted to 33603 in experiment [1] (15 μg/mL); 33737 in experiment [1] (30 μg/mL); 34486 in experiment [1] (75 μg/mL); 14630 in experiment [2] (15 μg/mL); 15317 in experiment [2] (30 μg/mL); 17032 in experiment [2] (75 μg/mL). Besides, the “Median Fluorescence Day 3 Average” value came out at 6153 in experiment [2] (15 μg/mL), 7228 in experiment [2] (30 μg/mL) and 11086 in experiment [2] (75 μg/mL). Also, in experiment [2], the “proliferation of activated PBMCs on day 3 (in words)” value (“proliferation of activated PBMCs” below) was “dose-dependent and significant decrease of proliferation”.

Regarding `CC1=C(/C=C/C(C)=C/C=C/C(C)=C/C=C/C=C(C)/C=C/C=C(C)/C=C/C2=C(C)C(=O)[C@@H](O)CC2(C)C)C(C)(C)C[C@H](O)C1=O` [Astaxanthin, reference compound], the “Median Fluorescence Day 7 Average” value in experiment [1] (2 μg/mL, IL-2 from day 3) was 20201; in experiment [1] (4 μg/mL, IL-2 from day 3) it was 19444; in experiment [1] (10 μg/mL, IL-2 from day 3) it was 16442. Further, the “Median Fluorescence Day 2 Average” value in experiment [1] (2 μg/mL) worked out at 33336; in experiment [1] (4 μg/mL) it was 32336; in experiment [1] (10 μg/mL) it was 36178; in experiment [2] (2 μg/mL), 14190; in experiment [2] (4 μg/mL), 15365; in experiment [2] (10 μg/mL), 19750. The “Median Fluorescence Day 3 Average” value in experiment [2] (2 μg/mL) is listed as 6502; in experiment [2] (4 μg/mL) it was 10055; in experiment [2] (10 μg/mL), 15342. The “proliferation of activated PBMCs” value in experiment [2] is listed as “slower proliferation”.

On to `OC[C@H]1O[C@@H](Oc2cc3c(O)cc(O)cc3[o+]c2-c2cc(O)c(O)c(O)c2)[C@H](O)[C@@H](O)[C@@H]1O` [D3G, Delphinidin 3-glucoside], for which the “cell viability (ATP amount, luminescence)” value in experiment [3] is “specific reduction”.

As for `C[C@@H]1O[C@@H](OC[C@H]2O[C@@H](Oc3cc4c(O)cc(O)cc4[o+]c3-c3cc(O)c(O)c(O)c3)[C@H](O)[C@@H](O)[C@@H]2O)[C@H](O)[C@H](O)[C@H]1O` [D3R, delphinidin 3-rutinoside], the “change of CD8+ T cells in comparison to controls” value in experiment [4] is on record as “most significant effects”. Besides, the “change of CD4+ T cells in comparison to controls” value in experiment [5] was “most significant effects”. The “Median Fluorescence Day 7 Average” value in experiment [1] (15 μg/mL, IL-2 from day 3) was 20821; in experiment [1] (30 μg/mL, IL-2 from day 3), 25171; in experiment [1] (75 μg/mL, IL-2 from day 3), 44248. In addition, the “Median Fluorescence Day 2 Average” value is recorded as 34772 in experiment [1] (15 μg/mL); 34646 in experiment [1] (30 μg/mL); 37453 in experiment [1] (75 μg/mL); 14407 in experiment [2] (15 μg/mL); 15685 in experiment [2] (30 μg/mL); 19716 in experiment [2] (75 μg/mL). In addition, in experiment [1] (2 days up to 7 days incubation, IL-2 from day 3), the “activation / proliferation of non-activated PBMCs (in words)” value was “slight decrease of proliferation”. Further, the results for the “Median Fluorescence Day 3 Average” value in experiment [2] (15 μg/mL), in experiment [2] (30 μg/mL) and in experiment [2] (75 μg/mL) were 6602, 8150 and 13927, respectively. The “proliferation of activated PBMCs” value in experiment [2] is “dose-dependent and significant decrease of proliferation”.

Values taken from patent publication US20220184162A1, “PREPARATIONS CONTAINING BERRY EXTRACTS FOR USE IN TREATING CANCER” (Evonik Operations GmbH, priority 2019, published 2022).
